{"source": "patent US10047105B2", "about": "“Gyrase inhibitors” (Merck Sharp & Dohme Corp., priority 2009, dated 2018)", "type_in_all_cases": "cell-based", "key": {"[1]": {"tested_on": "S. aureus ATCC 13709", "experiment": "MIC, antibacterial potency, S. aureus", "conditions": "S. aureus (SA); in µg/mL"}, "[2]": {"tested_on": "S. pneumoniae ATCC 51916", "experiment": "MIC, S. pneumoniae", "conditions": "S. pneumoniae (Spn52); in µg/mL"}, "[3]": {"tested_on": "E. coli 8 ATCC 25922", "experiment": "MIC, E. coli 8 (wt)", "conditions": "E. coli 8 (EC8)"}}}
{"smiles": "CCc1[nH]c2nc(Sc3ccc4[nH]cc(C#N)c(=O)c4c3)nc(N3CC[C@@H](N)C3)c2c1Cl", "note": "[700,919]", "values": [{"measurement": "MIC, SA", "setting": "[1]", "result": ">64"}, {"measurement": "MIC Spn52", "setting": "[2]", "result": ">64"}, {"measurement": "MIC EC8", "setting": "[3]", "result": "> 64", "unit": "µg/mL"}]}
{"smiles": "CCc1[nH]c2nc(Sc3ccc4[nH]cc(C(=O)O)c(=O)c4c3)nc(N3CC[C@@H](N)C3)c2c1Cl", "note": "[700,920]", "values": [{"measurement": "MIC, SA", "setting": "[1]", "result": ">64"}, {"measurement": "MIC Spn52", "setting": "[2]", "result": ">64"}, {"measurement": "MIC EC8", "setting": "[3]", "result": "> 64", "unit": "µg/mL"}]}
{"smiles": "CCc1[nH]c2nc(Sc3cnc4cccnc4c3)nc(N3CCC(NCCN)C3)c2c1Cl", "note": "(stereo not drawn) [700,921]", "values": [{"measurement": "MIC, SA", "setting": "[1]", "result": 2}, {"measurement": "MIC Spn52", "setting": "[2]", "result": 4}, {"measurement": "MIC EC8", "setting": "[3]", "result": "> 64", "unit": "µg/mL"}]}
{"smiles": "CCc1[nH]c2nc(Sc3ccc4c(N5CC(CN)C5)nc(C)nc4c3)nc(N3CC[C@@H](N)C3)c2c1Cl", "note": "[700,922]", "values": [{"measurement": "MIC, SA", "setting": "[1]", "result": 32}, {"measurement": "MIC Spn52", "setting": "[2]", "result": 64}, {"measurement": "MIC EC8", "setting": "[3]", "result": 4, "unit": "µg/mL"}]}
{"smiles": "CCc1[nH]c2nc(Sc3cnc4c(=N)n(CCCN(C)C)c(C)nc4c3)nc(N3CC[C@@H](N)C3)c2c1Cl", "note": "[700,923]", "values": [{"measurement": "MIC, SA", "setting": "[1]", "result": 16}, {"measurement": "MIC Spn52", "setting": "[2]", "result": 8}, {"measurement": "MIC EC8", "setting": "[3]", "result": 64, "unit": "µg/mL"}]}
{"smiles": "CCc1[nH]c2nc(Sc3cnc4c(=N)n(CCN(C)C)c(C)nc4c3)nc(N3CC[C@@H](N)C3)c2c1Cl", "note": "[700,924]", "values": [{"measurement": "MIC, SA", "setting": "[1]", "result": 16}, {"measurement": "MIC Spn52", "setting": "[2]", "result": 4}, {"measurement": "MIC EC8", "setting": "[3]", "result": 64, "unit": "µg/mL"}]}
{"smiles": "CCOC(=O)/C=C/c1ccc(Sc2nc(N3CC[C@@H](N)C3)c3c(Cl)c(CC)[nH]c3n2)cc1F", "note": "[700,925]", "values": [{"measurement": "MIC, SA", "setting": "[1]", "result": 4}, {"measurement": "MIC Spn52", "setting": "[2]", "result": 32}, {"measurement": "MIC EC8", "setting": "[3]", "result": "> 64", "unit": "µg/mL"}]}
{"smiles": "CCc1[nH]c2nc(Oc3cncc(C#N)c3)nc(Cc3cccc(C#N)c3)c2c1Cl", "note": "[700,927]", "values": [{"measurement": "MIC, SA", "setting": "[1]", "result": "<=0.5"}, {"measurement": "MIC Spn52", "setting": "[2]", "result": 1}, {"measurement": "MIC EC8", "setting": "[3]", "result": "> 64", "unit": "µg/mL"}]}
{"smiles": "CCc1[nH]c2nc(Sc3ccc4c(c3)c(=O)c(C#N)cn4CCN(C)C)nc(N3CC[C@@H](N)C3)c2c1Cl", "note": "[700,928]", "values": [{"measurement": "MIC, SA", "setting": "[1]", "result": 2}, {"measurement": "MIC Spn52", "setting": "[2]", "result": 8}, {"measurement": "MIC EC8", "setting": "[3]", "result": 16, "unit": "µg/mL"}]}
{"smiles": "CCc1[nH]c2nc(Sc3ccc4c(c3)c(=O)c(C#N)cn4CCCN(C)C)nc(N3CC[C@@H](N)C3)c2c1Cl", "note": "[700,929]", "values": [{"measurement": "MIC, SA", "setting": "[1]", "result": 16}, {"measurement": "MIC Spn52", "setting": "[2]", "result": 64}, {"measurement": "MIC EC8", "setting": "[3]", "result": 32, "unit": "µg/mL"}]}
{"smiles": "CCc1[nH]c2nc(Oc3cccc(C#N)c3)nc(C(C)O)c2c1Cl", "note": "(stereo not drawn) [700,930]", "values": [{"measurement": "MIC, SA", "setting": "[1]", "result": 8}, {"measurement": "MIC Spn52", "setting": "[2]", "result": 16}, {"measurement": "MIC EC8", "setting": "[3]", "result": "> 64", "unit": "µg/mL"}]}
{"smiles": "CCc1[nH]c2nc(Oc3cncc(C(=O)O)c3)nc(Oc3cncnc3)c2c1Cl", "note": "[700,932]", "values": [{"measurement": "MIC, SA", "setting": "[1]", "result": ">64"}, {"measurement": "MIC Spn52", "setting": "[2]", "result": ">64"}, {"measurement": "MIC EC8", "setting": "[3]", "result": "> 64", "unit": "µg/mL"}]}
{"smiles": "CCc1[nH]c2nc(Oc3cncc(C#N)c3)nc(Oc3cc(C#N)cc(OC)c3)c2c1Br", "note": "[700,933]", "values": [{"measurement": "MIC, SA", "setting": "[1]", "result": 2}, {"measurement": "MIC Spn52", "setting": "[2]", "result": 4}, {"measurement": "MIC EC8", "setting": "[3]", "result": "> 64", "unit": "µg/mL"}]}
{"smiles": "CCc1[nH]c2nc(Oc3cncc(OC)c3)nc(N3CC(O)C3)c2c1Cl", "note": "[700,934]", "values": [{"measurement": "MIC, SA", "setting": "[1]", "result": 4}, {"measurement": "MIC Spn52", "setting": "[2]", "result": 16}, {"measurement": "MIC EC8", "setting": "[3]", "result": "> 64", "unit": "µg/mL"}]}
{"smiles": "CCc1[nH]c2nc(Oc3cnc4ccoc4c3)nc(N3CC(N)C3)c2c1Br", "note": "[700,935]", "values": [{"measurement": "MIC, SA", "setting": "[1]", "result": 2}, {"measurement": "MIC Spn52", "setting": "[2]", "result": 32}, {"measurement": "MIC EC8", "setting": "[3]", "result": "> 64", "unit": "µg/mL"}]}
{"smiles": "CCc1[nH]c2nc(Oc3cnc4ccoc4c3)nc(N3CC4CNC4C3)c2c1Cl", "note": "(stereo not drawn) [700,936]", "values": [{"measurement": "MIC, SA", "setting": "[1]", "result": 64}, {"measurement": "MIC Spn52", "setting": "[2]", "result": 32}, {"measurement": "MIC EC8", "setting": "[3]", "result": "> 64", "unit": "µg/mL"}]}
{"smiles": "CCc1[nH]c2nc(Oc3cncc(OC)c3)nc(Oc3cncc(OC)c3)c2c1Br", "note": "[700,937]", "values": [{"measurement": "MIC, SA", "setting": "[1]", "result": "<=0.5"}, {"measurement": "MIC Spn52", "setting": "[2]", "result": 1}, {"measurement": "MIC EC8", "setting": "[3]", "result": "> 64", "unit": "µg/mL"}]}
{"smiles": "CCc1[nH]c2nc(Oc3ccc4nccnc4c3)nc(Oc3ccc4nccnc4c3)c2c1Br", "note": "[700,938]", "values": [{"measurement": "MIC, SA", "setting": "[1]", "result": "<=0.5"}, {"measurement": "MIC Spn52", "setting": "[2]", "result": "<=0.5"}, {"measurement": "MIC EC8", "setting": "[3]", "result": "> 64", "unit": "µg/mL"}]}
{"smiles": "CCc1[nH]c2nc(Oc3cnc4c(c3)ncn4C)nc(Oc3cnc4c(c3)ncn4C)c2c1Br", "note": "[700,939]", "values": [{"measurement": "MIC, SA", "setting": "[1]", "result": "<=0.5"}, {"measurement": "MIC Spn52", "setting": "[2]", "result": 1}, {"measurement": "MIC EC8", "setting": "[3]", "result": "> 64", "unit": "µg/mL"}]}
{"smiles": "CCc1[nH]c2nc(Sc3ccc4cc5c([n+]([O-])c4c3)CCNC5)nc(N3CC[C@@H](N)C3)c2c1Cl", "note": "[700,940]", "values": [{"measurement": "MIC, SA", "setting": "[1]", "result": 2}, {"measurement": "MIC Spn52", "setting": "[2]", "result": 8}, {"measurement": "MIC EC8", "setting": "[3]", "result": 8, "unit": "µg/mL"}]}
{"smiles": "CCc1[nH]c2nc(Oc3cncnc3)nc(N3CC4CNC4C3)c2c1Cl", "note": "(stereo not drawn) [700,941]", "values": [{"measurement": "MIC, SA", "setting": "[1]", "result": 4}, {"measurement": "MIC Spn52", "setting": "[2]", "result": 8}, {"measurement": "MIC EC8", "setting": "[3]", "result": "> 64", "unit": "µg/mL"}]}
{"smiles": "CCc1[nH]c2nc(Sc3ccc4c(N5CC(N)C5)ncnc4c3)nc(N3CC[C@@H](N)C3)c2c1Cl", "note": "[700,942]", "values": [{"measurement": "MIC, SA", "setting": "[1]", "result": 16}, {"measurement": "MIC Spn52", "setting": "[2]", "result": 16}, {"measurement": "MIC EC8", "setting": "[3]", "result": 8, "unit": "µg/mL"}]}
{"smiles": "CCc1[nH]c2nc(Sc3cnc4c(=N)n(CCCN5CCC(N)C5)c(C)nc4c3)nc(N3CC[C@@H](N)C3)c2c1Cl", "note": "(stereo partly drawn) [700,943]", "values": [{"measurement": "MIC, SA", "setting": "[1]", "result": 32}, {"measurement": "MIC Spn52", "setting": "[2]", "result": 32}, {"measurement": "MIC EC8", "setting": "[3]", "result": 64, "unit": "µg/mL"}]}
